Experimental data as given in patent publication US8722687B2, “Imidazo [1,2-A]pyridine derivatives as FGFR kinase inhibitors for use in therapy” (Astex Therapeutics Ltd, priority 2009, dated 2014).

Legend:
VEGFR2 = biological target: T1, VEGFR2 (Homo sapiens, UniProt P35968); experiment: VEGFR2 in vitro kinase inhibitory activity assay; assay type: biochemical; details: read-out: VEGFR2 IC50(μM) or % I
T1 construct: purchased Upstate
Method: FGFR3, VEGFR2 and PDGFR in vitro Kinase Inhibitory Activity Assays
Enzymes (from Upstate), prepared at 2× final concentration, were incubated with test compounds, biotinylated Flt3 substrate (biotin-VASSDNEYFYVDF) (Cell Signalling Technology Inc.) and ATP in the appropriate assay buffer (Table 1). The reaction was allowed to proceed for 3 hours (FGFR3), 1 hour (VEGFR2, PDGFR-beta) at room temperature on a plate shaker at 700 rpm before being stopped with 35 mM EDTA, pH 8 (FGFR3, VEGFR2) or 55 mM EDTA, pH 8 (PDGFR-beta). 5× detection mix/50 mM HEPES pH 7.5, 0.1% BSA, 11.34 nM Eu-anti-pY (PY20) (PerkinElmer) 74 nM SA-XL665 (Cisbio) for FGFR3, 50 mM HEPES, pH 7.5, 0.1% BSA, 11.34 nM Eu-anti-pY (PY20), 187.5 nM SA-XL665 for VEGFR2 and 50 mM HEPES, pH 7.5, 0.1% BSA, 11.34 nM Eu-anti-pY (PT66) (PerkinElmer), 375 nM SA-XL665 (Cisbio) for PDGFR-beta) was then added to each well and the plate sealed and incubated at room temperature for one hour on a plate shaker at 700 rpm. The plate was then read on a Packard Fusion plate reader or a BMG Pherastar both in TRF mode.
Kinase Assay buffers were:
B: 50 mM HEPES pH 7.5, 6 mM MnCl2, 1 mM DTT, 0.01% TritonX-100, 0.1 mM Sodium orthovanadate

[1] = tested on: parental wild-type Ba/F3 cells; experiment: Ba/F3 (WT) cell proliferation assay (Alamar Blue); assay type: cell-based, murine; details: read-out: BaF3 WT prolif; for IC50: BaF3, 72 hours, with mouse IL-3
Method: Ba/F3-TEL-FGFR3 & Ba/F3 (WT) Cell Proliferation Assays
Stably transfected Ba/F3-TEL-FGFR3 cells were plated out into black 96-well tissue culture plates with clear bottoms in RPMI medium containing 10% FBS and 0.25 mg/ml G418 at a density of 5×10^3 cells/well (200 μl per well). The parental wild-type Ba/F3 cells (DSMZ no.: ACC 300) were plated out into black 96-well tissue culture plates with clear bottoms in RPMI medium containing 10% FBS and 2 ng/ml mouse IL-3 (R&D Systems) at a density of 2.5×10^3 cells/well (200 μl per well). Plates were placed in an incubator overnight before adding the compounds the following day. Dilutions of compounds were made in DMSO starting at 10 mM and were diluted into the wells to give a final DMSO concentration of 0.1% in assay. Compounds were left on the cells for 72 hours before the plates were removed from the incubator and 20 μl of Alamar Blue™ (Biosource) was added to each well. Plates were placed in the incubator for 4-6 hours before reading plates at 535 nm (excitation)/590 nm (emission) on a Fusion plate reader (Packard). Where inhibition is high an IC50 can be determined.

[2] = tested on: human prostate cancer PC3 cells; experiment: EB1 cellular assay (Eb1 Comet assay, microtubule disruption); assay type: cell-based; details: PC-3, lowest active concentration: Eb1 foci absent in at least 50% of treated PC3 cells, 1 hour, read-out: Eb1 LAC
Method: The Eb1 Comet assay relies on the detection of the Eb1 protein at the plus end of polymerizing microtubules (Mimori-Kiyosue, 2000) using indirect immunofluorescence. Disruption of microtubule dynamics through de-polymerization or stabilization results in a de-localization of Eb1 from the growing microtubule ends and this is visualized by the disappearance of Eb1 containing cytoplasmic foci.
Briefly, human prostate cancer PC3 cells obtained from the American Type Culture Collection were grown in 96-well plates (Greiner, cat. no. 655090) in HAM's F12 medium as recommended by the provider (ATCC). The cells were treated for 1 hour at 37° C. with compounds dissolved in DMSO (0.6% final DMSO concentration). The culture medium was then removed by aspiration and the cells were fixed by adding cold methanol (−20° C.). After a 15 minutes incubation at −20° C., the cells were washed twice with DPBS (Gibco) containing 0.5% Triton X-100. Mouse Eb1 antibody (BD Transduction Laboratories, cat. no. 610534) was added to the cells (1/250 dilution in DPBS containing 1% BSA) and incubated overnight at room temperature. The antibody was subsequently removed and the cells washed twice with DPBS, 0.5% Triton X-100. Secondary goat anti-mouse antibody conjugated to Alexa 488 fluorescent dye (Molecular Probes) was added at a 1/500 dilution in DPBS, 1% BSA and incubated for 1 hour at 37° C. The cells were washed twice with DPBS, 0.5% Triton X-100 and then DPBS containing 0.5% Triton X-100 and 1/5000 Hoechst 33342 (Molecular Probes) was added. Microscopy based Eb1 foci visualization was carried out using an IN Cell Analyser 1000 (Amersham Biosciences) using a 20× objective. Compound dependent microtubule disruption was visually determined by the disappearance in Eb1 foci. The lowest active concentration (LAC) was determined as the concentration where Eb1 foci were absent in at least 50% of the treated cells. Herein the effects of test compounds are expressed as pLAC (the negative log value of the LAC-value)

T1 sequence (P35968 20-1356): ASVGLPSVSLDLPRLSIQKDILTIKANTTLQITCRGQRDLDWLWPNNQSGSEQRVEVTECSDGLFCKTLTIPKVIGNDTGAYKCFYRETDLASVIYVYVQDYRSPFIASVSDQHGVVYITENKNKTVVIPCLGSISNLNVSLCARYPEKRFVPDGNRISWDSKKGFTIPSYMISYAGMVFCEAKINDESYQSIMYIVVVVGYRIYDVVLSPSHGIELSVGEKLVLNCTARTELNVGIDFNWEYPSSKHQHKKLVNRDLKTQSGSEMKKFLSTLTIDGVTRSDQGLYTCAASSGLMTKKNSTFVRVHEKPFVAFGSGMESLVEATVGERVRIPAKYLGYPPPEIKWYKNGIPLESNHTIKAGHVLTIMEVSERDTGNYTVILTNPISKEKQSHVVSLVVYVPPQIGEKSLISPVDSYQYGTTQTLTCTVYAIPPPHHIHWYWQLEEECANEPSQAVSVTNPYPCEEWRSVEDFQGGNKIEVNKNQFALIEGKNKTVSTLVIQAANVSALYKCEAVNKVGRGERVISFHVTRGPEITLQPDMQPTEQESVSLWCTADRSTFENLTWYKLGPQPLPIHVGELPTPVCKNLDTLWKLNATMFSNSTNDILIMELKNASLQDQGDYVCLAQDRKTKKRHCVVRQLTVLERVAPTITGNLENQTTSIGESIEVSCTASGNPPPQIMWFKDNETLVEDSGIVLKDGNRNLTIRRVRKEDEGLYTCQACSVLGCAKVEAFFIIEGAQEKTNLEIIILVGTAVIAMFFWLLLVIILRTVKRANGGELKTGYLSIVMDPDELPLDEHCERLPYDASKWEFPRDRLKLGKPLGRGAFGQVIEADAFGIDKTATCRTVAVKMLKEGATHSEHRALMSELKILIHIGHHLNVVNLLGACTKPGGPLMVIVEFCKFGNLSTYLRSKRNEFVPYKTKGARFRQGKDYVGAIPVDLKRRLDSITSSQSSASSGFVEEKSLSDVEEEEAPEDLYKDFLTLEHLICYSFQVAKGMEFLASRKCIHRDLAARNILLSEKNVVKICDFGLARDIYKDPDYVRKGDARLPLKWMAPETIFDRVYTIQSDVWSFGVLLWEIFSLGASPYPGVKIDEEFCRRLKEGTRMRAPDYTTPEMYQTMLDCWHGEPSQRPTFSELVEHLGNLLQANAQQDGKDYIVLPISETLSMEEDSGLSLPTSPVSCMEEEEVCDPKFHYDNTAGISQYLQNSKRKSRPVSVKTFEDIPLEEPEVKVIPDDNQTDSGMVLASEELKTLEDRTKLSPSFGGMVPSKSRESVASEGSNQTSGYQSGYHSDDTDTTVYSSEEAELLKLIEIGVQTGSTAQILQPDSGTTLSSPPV

Row | SMILES | inhibition at 10 µM (VEGFR2; 1 h, % I at 10 μM) [%] | IC50 [1] [nM] | minimal effective concentration [2] [µM] | IC50 (VEGFR2) [µM] | inhibition at 10 µM ([1]; Mus musculus, BaF3, 72 h) [%] | inhibition at 3 µM (VEGFR2; 1 h, % I at 3 μM) [%] | inhibition at 3 µM ([1]; Mus musculus, BaF3, 72 h, % at 3.00 μM) [%]
1 | CC(C)Oc1cc(NC(=O)NCC(F)(F)F)cc(-c2cnc3cc(-c4nccc(C(C)C)n4)ccn23)c1 [Compound F-29, 1-{3-Isopropoxy-5-[7-(4-isopropyl-pyrimidin-2-yl)-imidazo[1,2-a]pyridin-3-yl]-phenyl}-3-(2,2,2-trifluoroethyl)-urea] | 53 | 3980 | > 10 | – | – | – | –
2 | CC(C)Oc1cc(NC(=O)NCC(F)(F)F)cc(-c2cnc3cc(OCCCO)ccn23)c1 [Compound F-18, 1-{3-[7-(3-Hydroxy-propoxy)-imidazo[1,2-a]pyridin-3-yl]-5-isopropoxy-phenyl}-3-(2,2,2-trifluoro-ethyl)-urea] | – | – | 5 | 0.67 | 54 | – | –
3 | CCOc1cc(NC(=O)NCC(F)(F)F)cc(-c2cnc3cc(-c4ccnc(C(F)(F)F)n4)ccn23)c1 [Compound F-16, 1-{3-Ethoxy-5-[7-(2-trifluoromethyl-pyrimidin-4-yl)-imidazo[1,2-a]pyridin-3-yl]-phenyl}-3-(2,2,2-trifluoro-ethyl)-urea] | – | – | > 10 | 0.4 | 32 | – | –
4 | CC(C)Oc1cc(NC(=O)NCC(F)(F)F)cc(-c2cnc3cc(N4CCC(F)(F)CC4)ccn23)c1 [Compound F-13, 1-{3-[7-(4,4-Difluoro-piperidin-1-yl)-imidazo[1,2-a]pyridin-3-yl]-5-isopropoxy-phenyl}-3-(2,2,2-trifluoro-ethyl)-urea] | – | 3200 | 5 | – | – | 55 | –
5 | CC(C)Oc1cc(NC(=O)NCC(F)(F)F)cc(-c2cnc3cc(-c4nccc(C(C)(C)CO)n4)ccn23)c1 [Compound F-27, 1-(3-{7-[4-(2-Hydroxy-1,1-dimethylethyl)-pyrimidin-2-yl]-imidazo[1,2-a]pyridin-3-yl}-5-isopropoxy-phenyl)-3-(2,2,2-trifluoro-ethyl)-urea] | – | – | > 10 | 1.2 | – | – | 50
